From BindingDB's records for patent US20230348426 (Bristol-Myers Squibb, 2023)
pEC50: −log10 of the molar value.

Assays:
[1] = biological target: T1, N-formyl peptide receptor 2 (Homo sapiens, UniProt P25090); test: FPR2 and FPR1 Cyclic Adenosine Monophosphate (cAMP) Assays
T1 sequence (P25090 whole entry): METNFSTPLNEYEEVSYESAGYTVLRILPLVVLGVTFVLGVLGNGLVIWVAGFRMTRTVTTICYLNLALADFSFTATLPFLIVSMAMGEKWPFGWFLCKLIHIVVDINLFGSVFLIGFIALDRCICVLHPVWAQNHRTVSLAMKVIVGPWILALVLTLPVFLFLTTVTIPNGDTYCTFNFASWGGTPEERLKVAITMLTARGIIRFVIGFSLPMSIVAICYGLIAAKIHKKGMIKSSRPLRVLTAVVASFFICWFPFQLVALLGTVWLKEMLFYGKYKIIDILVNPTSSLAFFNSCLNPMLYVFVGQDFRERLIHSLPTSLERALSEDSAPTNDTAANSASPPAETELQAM
Procedure: (§1) A mixture of forskolin (5 M final for FPR2 or 10 M final for FPR1) and IBMX (200 M final) were added to 384-well Proxiplates (Perkin-Elmer) pre-dotted with test compounds in DMSO (1% final) at final concentrations in the range of 0.020 nM to 100 µM. Chinese Hamster Ovary cells (CHO) overexpressing human FPR1 or human FPR2 receptors were cultured in F-12 (Ham s) medium supplemented with 10% qualified FBS, 250 µg/ml zeocin and 300 µg/ml hygromycin (Life Technologies). Reactions were initiated by adding 2,000 human FPR2 cells per well or 4,000 human FPR1 cells per well in Dulbecco s PBS (with calcium and magnesium) (Life Technologies) supplemented with 0.1% BSA (Perkin-Elmer). The reaction mixtures were incubated for 30 min at room temperature. The level of intracellular cAMP was determined using the HTRF HiRange cAMP assay reagent kit (Cisbio) according to manufacturer s instruction. Solutions of cryptate conjugated anti-cAMP and d2 flurorophore-labelled cAMP were made in a supplied lysis buffer separately. Upon completion of the reaction, the cells were lysed with equal volume of the d2-cAMP solution and anti-cAMP solution. […] The potency and activity of a compound to inhibit cAMP production was then determined by fitting to a 4-parametric logistic equation from a plot of cAMP level versus compound concentrations.

fMet-Leu-Phe receptor = biological target: T2, fMet-Leu-Phe receptor (Homo sapiens, UniProt P21462); test: as above
T2 sequence (P21462 whole entry): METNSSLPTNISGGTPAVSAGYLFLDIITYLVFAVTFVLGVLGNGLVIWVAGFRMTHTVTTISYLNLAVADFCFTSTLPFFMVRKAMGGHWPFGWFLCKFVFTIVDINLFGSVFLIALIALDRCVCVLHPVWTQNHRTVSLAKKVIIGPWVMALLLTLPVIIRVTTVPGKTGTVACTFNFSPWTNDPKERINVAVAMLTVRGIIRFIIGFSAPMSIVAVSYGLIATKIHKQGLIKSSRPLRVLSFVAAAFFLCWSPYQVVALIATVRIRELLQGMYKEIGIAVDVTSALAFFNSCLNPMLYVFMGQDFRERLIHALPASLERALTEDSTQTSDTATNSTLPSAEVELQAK
Procedure: as §1

| SMILES | pEC50 [1] | pEC50 (fMet-Leu-Phe receptor) |
| --- | --- | --- |
| COc1cc(F)c([C@@H]2CN(c3nc(N4CCCS4(=O)=O)ccc3F)C(=O)[C@H]2NC(=O)c2ccc(OC(F)(F)F)cc2)c(F)c1 [US20230348426, Example 289] | 8.07 | 7.21 |
| COc1cc(F)c([C@@H]2CN(c3nc(N4CC(CO)OCC4=O)ccc3F)C(=O)[C@H]2NC(=O)c2ccc(OC(F)F)cc2)c(F)c1 (some centres not stated) [US20230348426, Example 331] | 7.89 | 5.25 |
| COc1cc(F)c([C@@H]2CN(c3c(C)ccn(C4CCN(C)C4)c3=O)C(=O)[C@H]2NC(=O)c2ccc(Cl)cc2)c(F)c1 (some centres not stated) [US20230348426, Example 510] | 8.46 | 6.54 |
| COc1cc(C2CCN(C)CC2)nc(N2C(=O)[C@@H](NC(=O)c3ccc(Cl)cc3)[C@H](c3c(F)cc(OC)cc3F)[C@H]2C)c1 [US20230348426, Example 558] | 8.19 | 5.70 |
| COc1cc(F)c([C@@H]2CN(c3c(C)ccn(C4CCS(=O)(=O)CC4)c3=O)C(=O)[C@H]2NC(=O)c2ccc(Cl)cc2)c(F)c1 [US20230348426, Example 625] | 8.72 | 7.92 |
| COc1cc(F)c([C@@H]2CN(c3c(C)ccn(CC(O)C4CC4)c3=O)C(=O)[C@H]2NC(=O)c2ccc(Cl)cc2)c(F)c1 (some centres not stated) [US20230348426, Example 684] | 8.15 | 8.30 |
